From ChEMBL document CHEMBL1153880, “Synthesis and adrenolytic activity of 1-(1H-indol-4-yloxy)-3-{[2-(2-methoxyphenoxy)ethyl]amino}propan-2-ol and its enantiomers. Part 1” (Eur J Med Chem, 2009)

Test system: Rattus norvegicus
Test: Hypotensive activity in anaesthetized normotensive Wistar rat assessed as decrease in systolic pressure at 0.25 to 1 mg/kg, iv administered as single dose after 5 mins
Assay type: functional
Parameters: scale not given: the % may be the effect or the level left
Settings: dose mg/kg 0.25-1

With `COc1ccccc1OCCNCC(O)COc1cccc2[nH]ccc12` (racemic) the Activity was 10%.
